Patent publication US5458874A, “Method of increasing monocyte chemotaxis with CAP37 and monocyte chemotactic portions thereof” (Emory University, priority 1992, dated 1995)
Entries after “also recorded” stand apart in the source; their conditions may differ. Where two headings read alike, the source gives them in different places.

Columns and labels:
human monocytes = experiment: Monocyte chemotaxis, modified Boyden chamber technique; format: cell-based; settings: chemoattractant conc. 10^-8 M
Description: Chemotaxis was measured using the modified Boyden chamber technique (Snyderman et al.). The leading front method (Zigmond et al.) was used to assess migration of monocytes and lymphocytes through a 8 μm filter (Millipore Corporation, Bedford, Mass.). PMN chemotaxis was measured using a 3 μm filter (Millipore). The purified CAP37 protein (Example 1) used in chemotaxis assays were endotoxin-free as determined by the Limulus Amoebocyte Lysate Assay (Whittaker Bioproducts, Inc., Walkersville, Md.). The dilutions of CAP37 and N-formyl-methionyl-leucyl-phenylalanine (FMLP) were made in Geys buffer (Gibco) containing 2% endotoxin-free bovine serum albumin (BSA). Geys buffer containing 2% BSA served as the negative control, and a […] solution of FMLP as the positive control.
The chambers were incubated in a humidified atmosphere (6.2% CO2) for 2 hours when testing monocytes and lymphocytes, and for 30 minutes when testing PMNs. The filters were then removed and processed as previously described (Snyderman et al.). The cells were viewed using oil immersion and the distance the cells had migrated into the filter was determined over five different fields on the same slide (Zigmond et al.). Triplicate assays were performed for each experimental point.
The three peptides were tested for chemotactic activity towards monocytes using the modified Boyden Chamber technique described in Example 2. The monocyte chemotactic activity of each peptide fragment at concentrations ranging from 10^-7 to 10^-13 M was compared with Geys buffer (negative control), FMLP 10^-8 M (positive control) and purified CAP37 10^-9 M (positive control). […] The effect of peptide 1 on monocyte chemotaxis is illustrated in Table 2 while the effect of peptide 3 on monocyte chemotaxis is illustrated in Table 3.

[1] = system: Salmonella typhimurium SH9178; experiment: Bactericidal assay; format: cell-based; settings: for bactericidal effect on Salmonella typhimurium SH9178 (in words): FIGS. 12, 13, 15, 1 hour at 37° C.; for % survival with peptide 20-44: Salmonella SH9178
Description: (§1) An overnight culture of Salmonella typhimurium (or other microorganism of interest, if desired) is set up by inoculating one colony in 5 ml of LB Broth (LB Broth consists of 10 g BACTO tryptone (DIFCO), 5 g BACFO yeast (DIFCO) and 5 g NaCl made up to 1 L with endotoxin free water; add 15 g of BACTO agar (DIFCO) to this broth to make LB agar (autoclave). The culture is incubated at 37° C. with rotation. 100 μl of this overnight culture is then transferred to 5 ml of fresh LB Broth and incubated at 37° C. with rotation for 2 hours. Four ml of this log phase culture is then transferred to a sterile cuvette and the optical density is read at […]. Dilutions of the microorganism are then made in tryptone saline (5 g BAOTO tryptone (DIFCO) and 5 g NaCl made up to 1 L with endotoxin free water, pH 5.5) to give a final concentration of 5×10^3 organisms/ml (an O.D. reading of 0.25 at 520 mm is equivalent to 1×10^8 organisms/ml). The microorganisms are placed at 4° C. until ready to be used.
(§2) The stock solutions of peptides are stored at -20° C. at concentrations of 1 mg/ml of endotoxin-free water. The peptide is diluted out in tryptone saline to the desired concentration. 100 μl of the peptide is added to each well of the microtitre plate (Corning) and then 100 μl of the bacterial suspension (well vortexed) is added. Each assay point is set up in triplicate. 100 μl of a control, consisting of bacteria and tryptone saline (T=0) in the absence of peptide is plated out on LB agar plates. The microliter plate is then incubated at 37° C. for 1 hour. At the end of the incubation time, 100 μl of each sample is plated out on LB agar plates. The T=60 control (consisting of bacteria and tryptone saline in the absence of peptide) is plated out last. The plates are incubated overnight, and the number of colony forming units (CFU) are determined.
(§3) The % killed is determined as follows: [formula]

wild type LPS = experiment: Neutralization of LPS activity, limulus amebocyte lysate (LAL) assay, wild type LPS; format: biochemical
Description: (§4) Further, the neutralization of LPS activity, as assayed by the limulus amebocyte lysate (LAL) assay, by CAP37 was measured. CAP37 was diluted to the desired concentrations (from 6.2 ng/ml to 500 ng/ml) in geys buffered saline pH 7 (GIBCO). To this wild type LPS (RIBI IMMUNOCHEM) or Re LPS from Salmonella (David Morrison, Kansas Medical Center) was added so that the final concentrations were 0.1, 0.5, 1.0 and 2.0 ng/ml LPS. The tubes were incubated at 37° C. for between 30 to 60 minutes and then assayed in the chromogenic LAL assay, using polymyxin E as a control.
(§5) As discussed in Example 11, peptides can be screened for lipopolysaccharide neutralizing capacity using the LAL assay also. The CAP37 peptide was diluted to the desired concentrations (from 125 ng/ml to 4000 ng/ml) in geys buffered saline pH 7 (GIBCO). To this is added the wild type LPS (RIBI IMMUNOCHEM) or Re LPS from Salmonella (David Morrison, Kansas Medical Center) so that the final concentration is 0.1, 0.5, and 1.0 ng/ml LPS. The tubes were incubated at 37° C. for between 30 to 60 minutes and then assayed in the chromogenic LAL assay.

Re LPS from Salmonella = experiment: Neutralization of LPS activity, limulus amebocyte lysate (LAL) assay, Re LPS; format: biochemical
Description: as §4, §5

Salmonella SH7426 = experiment: Bactericidal assay; format: cell-based
Description: as §1, §2, §3

Salmonella LT2 = experiment: Bactericidal assay; format: cell-based, Salmonella typhimurium; settings: for % survival with peptide 20-44: Salmonella LT2; for bactericidal activity (in words): Salmonella typhimurium LT2
Description: as §1, §2, §3

Salmonella SH7518 = experiment: Bactericidal assay; format: cell-based, Salmonella typhimurium; settings: for % survival with peptide 20-44: Salmonella SH7518
Description: as §1, §2, §3

E. coli = experiment: Bactericidal assay; format: cell-based, Escherichia coli
Description: as §1, §2, §3

Ps. aeruginosa = experiment: Bactericidal assay; format: cell-based, Pseudomonas aeruginosa; settings: for % survival with peptide 20-44: Ps. aeruginosa; for bactericidal activity (in words): Pseudomonas
Description: as §1, §2, §3

E. faecalis = experiment: Bactericidal assay; format: cell-based, Enterococcus faecalis
Description: as §1, §2, §3

P. mirabilis Re45 = experiment: Bactericidal assay; format: cell-based, Proteus mirabilis; settings: for % survival with peptide 20-44: P. mirabilis Re45
Description: as §1, §2, §3

L monocytogenes = experiment: Bactericidal assay; format: cell-based, Listeria monocytogenes
Description: as §1
(§6) The stock solutions of peptides are stored at -20° C. at concentrations of 1 mg/ml of endotoxin-free water. The peptide is diluted out in tryptone saline to the desired concentration. […] The plates are incubated overnight, and the number of colony forming units (CFU) are determined.
as §3

S. aureus 502A = experiment: Bactericidal assay; format: cell-based, Staphylococcus aureus
Description: as §1, §6, §3

Strep. pyogenes = experiment: Bactericidal assay; format: cell-based, Streptococcus pyogenes
Description: as §1, §6, §3

[2] = system: gram negative and gram positive bacteria; experiment: Bactericidal assay, assortment of bacteria (FIG. 14); format: cell-based
Description: as §1, §6, §3

[3] = system: Salmonella typhimurium SH9178; experiment: Inhibition of the bactericidal effect by LPS and Lipid A; format: cell-based; settings: peptide at 200 μg/ml, FIG. 16
Description: To identity, those peptides derived from CAP37 having bacterial LPS-binding activity, the peptide fragments having bactericidal activity were tested to ascertain whether LPS or Lipid A inhibited that activity.

For `CSCC[C@H](NC=O)C(=O)N[C@@H](CC(C)C)C(=O)N[C@@H](Cc1ccccc1)C(=O)O` [FMLP, N-formyl-methionyl-leucyl-phenylalanine, reference compound], the “Distance migrated in μm” value (human monocytes; Table 2) was 86.2 μm and the “Distance migrated in μm” value (human monocytes; Table 3) was 91.4 μm.
“26-42aa: synthesized peptide fragment, amino acids 26-42 of the mature CAP37 protein (CGGALIHARFVMTAASC; UniProt P20160 52-68, looked up, fragment)” was tested, and the “bactericidal effect on Salmonella typhimurium SH9178 (in words)” value (“bactericidal effect … (in words)” for short) [1] was “minimal activity”.
In the case of “1-44aa: synthesized peptide fragment, amino acids 1-44 of the mature CAP37 protein (IVGGRKARPRQFPFLASIQNQGRHFCGGALIHARFVMTAASCFQ; UniProt P20160 27-70, looked up, fragment)”, the “bactericidal effect … (in words)” value [1] is reported as “active but not to the same extent as peptide 20-44aa”.
For “peptide 20-44aa: synthesized peptide fragment, amino acids 20-44 of the mature CAP37 protein (NQGRHFCGGALIHARFVMTAASCFQ)”, the “neutralization of wild type LPS activity (LAL assay)” value (wild type LPS) was “neutralizing its effect to a certain extent”, the “neutralization of Re LPS activity (LAL assay)” value (Re LPS from Salmonella) was “more dramatic” and the “% survival with peptide 20-44” value (Salmonella SH7426; 50 uM) was 62.5%. For the same compound, the “% survival with peptide 20-44” value (Salmonella SH7426; 75 uM) was 31.9%, the “% survival with peptide 20-44” value ([1]; 50 uM) was 36.9% and the “% survival with peptide 20-44” value ([1]; 75 uM) was 3.5%. For the same compound, the “bactericidal activity compared with cathepsin G and elastase peptides” value ([1]; 100 and 125 μM, FIG. 15) was “very much more bactericidal”, the “bactericidal effect … (in words)” value [1] was “most potent antibiotic of these peptides; also recorded: Strongest activity; also recorded: extremely active” and the “bactericidal effect … (in words)” value ([1]; listed as CAP37 peptide 20-44) was “most active”. For the same compound, the “% survival with peptide 20-44” value (Salmonella LT2; 50 uM) was 28.5%, the “% survival with peptide 20-44” value (Salmonella LT2; 75 uM) was 1.7% and the “bactericidal activity (in words)” value (Salmonella LT2) was “more active”. The “bactericidal activity (in words)” value (Salmonella LT2; listed as CAP37 peptide 20-44) was “most active”, the “% survival with peptide 20-44” value (Salmonella SH7518; 50 uM) was 0.6% and the “% survival with peptide 20-44” value (Salmonella SH7518; 75 uM) was 0%. The “bactericidal activity (in words)” value (Salmonella SH7518; Salmonella typhimurium SH7518) was “most active”, the “bactericidal activity (in words)” value (E. coli) was “more active” and the “% survival with peptide 20-44” value (E. coli; 50 uM) was 24.6%. For the same compound, the “% survival with peptide 20-44” value (E. coli; 75 uM) was 0%, the “bactericidal activity (in words)” value (E. coli; listed as CAP37 peptide 20-44) was “most active” and the “% survival with peptide 20-44” value (Ps. aeruginosa; 50 uM) was 0%. The “% survival with peptide 20-44” value (Ps. aeruginosa; 75 uM) was 0%, the “bactericidal activity (in words)” value (Ps. aeruginosa) was “more active” and the “bactericidal activity (in words)” value (Ps. aeruginosa; listed as CAP37 peptide 20-44) was “most active”. The “bactericidal activity (in words)” value (E. faecalis) was “more active”, the “% survival with peptide 20-44” value (E. faecalis; 50 uM) was 16.1% and the “% survival with peptide 20-44” value (E. faecalis; 75 uM) was 0%. For the same compound, the “bactericidal activity (in words)” value (E. faecalis; listed as CAP37 peptide 20-44) was “most active”, the “% survival with peptide 20-44” value (P. mirabilis Re45; 50 uM) was 26.8% and the “% survival with peptide 20-44” value (P. mirabilis Re45; 75 uM) was 29%. The “bactericidal activity (in words)” value (P. mirabilis Re45; Pr. mirabilis Re45) was “more active”, the “% survival with peptide 20-44” value (L monocytogenes; 50 uM) was 65.8% and the “% survival with peptide 20-44” value (L monocytogenes; 75 uM) was 64.6%. The “% survival with peptide 20-44” value (S. aureus 502A; 50 uM) was 58.7%, the “% survival with peptide 20-44” value (S. aureus 502A; 75 uM) was 27.5% and the “% survival with peptide 20-44” value (Strep. pyogenes; 50 uM) was 93.4%. The “% survival with peptide 20-44” value (Strep. pyogenes; 75 uM) was 78%, the “antibacterial activity against gram negative and gram positive bacteria (in words)” value [2] was “active against a wide assortment of bacteria” and the “antibacterial activity against gram negative and gram positive bacteria (in words)” value ([2]; listed as peptide 20-14aa) was “active against many other bacteria”. The “inhibition of the bactericidal effect by wild type LPS and Lipid A” value [3] was “wild type LPS, but more particularly Lipid A, can inhibit the bactericidal effect”.
